How the values were obtained:
T-type calcium channel = T-type calcium channel (Homo sapiens, UniProt O43497); test: Measurement of ion currents through T-type calcium channel using automated patch clamp; type: cell-based; settings: whole-cell automated patch clamp, HEK-293 cells expressing T-type calcium channel, 10 mM Ba2+
Description: The selected compounds were used in a second assay for T-type calcium channel inhibiting activity using electrophysiological whole cell patch clamp method, wherein mammal HEK293 cell lines, which are originated from human kidney carcinoma cells and which specifically express alG of T-type calcium channel, were used for the second assay. As a reference drug, mibefradil which had been developed as T-type calcium channel inhibitor was used.
Stably expressed T-type calcium channels in Human Embryonic Kidney (HEK)-293 cell were provided by Korea Research Institute of Bioscience and Biotechnology (KRIBB) and hERG (human ether-a-go-go-related gene) channels induced by a Tet-expression system expressed in HEK-293 cell were purchased from Iongate (Frankfurt, Germany). In a humidified 5% CO2 incubator at 37° C., T-type calcium channel expressed cells were maintained in Dulbecco's modified Eagle's medium (DMEM) including 10% Fetal Bovine Serum (FBS), and hERG channel expressed cells were maintained in MEM with 10% FBS. For hERG channel expression, the Tet-expression system was activated by adding 1 μg/ml Doxycyclin into the hERG channel cell growth medium 20 h prior to use. Cell lines were subcultured once in three days and used for patch clamp recordings at final confluence of 50-80%. To harvest cells, cell detacher, Trypsin-EDTA (0.25×) was added into the dish and single cells were made using a pipette. Trypsin was removed by centrifugation at 1100 rpm for 3 min. Cells were automatically suspended after adding external cellular solution at room temperature.
The composition of solution for measuring T-type calcium channel and hERG channel activity is following: 140 mM NaCl, 2 mM CaCl2, 4 mM KCl, 1 mM MgCl2, 5 mM D-glucose and 10 mM HEPES (pH 7.4) for external cellular solution, 50 mM KCl, 10 mM NaCl, 60 mM KF, 2 mM MgCl2, 10 mM HEPES and 20 mM EGTA (pH 7.2) for internal cellular solution and 80 mM NaCl, 35 mM CaCl2, 3 mM KCl, 10 mM MgCl2 and 10 mM HEPES (pH 7.4) for seal enhancer. T-type calcium channel activity was recorded after adding 10 mM Ba^2+ into external solution. Each compound dissolved in 100% DMSO with a final concentration of 100 mM was diluted to 10 nM˜100 μM range in external solution with 10 mM Ba^2+ for T-type calcium channel and no Ba^2+ for hERG channel recordings.
In all experiments, auto patch clamp machine NPC©-16 Patchliner (Nanion Technologies, Germany) and whole-cell patch clamp technique were used. Channel current was recorded by EPC10 (HEKA, Germany) amplifier. Cell suspension and patch solutions were automatically divided into the chip (NPC-16 Chip, Nanion Technologies, Germany). Inward current was recorded at −20 mV depolarization potential at intervals of 10 s during 300 ms with −100 mV holding potential for T-type calcium channels, and tail current was recorded at −50 mV at intervals of 10 s during 500 ms after 20 mV depolarization during 200 ms with −80 mV holding potential for hERG channels. Compounds at each concentration were applied to the cell during 20 s. Inhibition curves and IC50 values were automatically calculated from peak currents using data analysis program, IGOR Pro (WaveMetrics, USA).

α1G T-type Ca2+ channels = biological target: T1, α1G T-type Ca2+ channels (Homo sapiens, UniProt O43497); test: Assay for inhibitory activity against T-type calcium channel using FDSS6000; type: cell-based; settings: HEK293 cells expressing α1G and Kir2.1, KCl (70 mM) depolarization, fluo3/AM, read-out: FDSS (% Inhibition, at 10 μM)
T1 construct: expressed in transfected cells
T1 sequence (O43497 whole entry): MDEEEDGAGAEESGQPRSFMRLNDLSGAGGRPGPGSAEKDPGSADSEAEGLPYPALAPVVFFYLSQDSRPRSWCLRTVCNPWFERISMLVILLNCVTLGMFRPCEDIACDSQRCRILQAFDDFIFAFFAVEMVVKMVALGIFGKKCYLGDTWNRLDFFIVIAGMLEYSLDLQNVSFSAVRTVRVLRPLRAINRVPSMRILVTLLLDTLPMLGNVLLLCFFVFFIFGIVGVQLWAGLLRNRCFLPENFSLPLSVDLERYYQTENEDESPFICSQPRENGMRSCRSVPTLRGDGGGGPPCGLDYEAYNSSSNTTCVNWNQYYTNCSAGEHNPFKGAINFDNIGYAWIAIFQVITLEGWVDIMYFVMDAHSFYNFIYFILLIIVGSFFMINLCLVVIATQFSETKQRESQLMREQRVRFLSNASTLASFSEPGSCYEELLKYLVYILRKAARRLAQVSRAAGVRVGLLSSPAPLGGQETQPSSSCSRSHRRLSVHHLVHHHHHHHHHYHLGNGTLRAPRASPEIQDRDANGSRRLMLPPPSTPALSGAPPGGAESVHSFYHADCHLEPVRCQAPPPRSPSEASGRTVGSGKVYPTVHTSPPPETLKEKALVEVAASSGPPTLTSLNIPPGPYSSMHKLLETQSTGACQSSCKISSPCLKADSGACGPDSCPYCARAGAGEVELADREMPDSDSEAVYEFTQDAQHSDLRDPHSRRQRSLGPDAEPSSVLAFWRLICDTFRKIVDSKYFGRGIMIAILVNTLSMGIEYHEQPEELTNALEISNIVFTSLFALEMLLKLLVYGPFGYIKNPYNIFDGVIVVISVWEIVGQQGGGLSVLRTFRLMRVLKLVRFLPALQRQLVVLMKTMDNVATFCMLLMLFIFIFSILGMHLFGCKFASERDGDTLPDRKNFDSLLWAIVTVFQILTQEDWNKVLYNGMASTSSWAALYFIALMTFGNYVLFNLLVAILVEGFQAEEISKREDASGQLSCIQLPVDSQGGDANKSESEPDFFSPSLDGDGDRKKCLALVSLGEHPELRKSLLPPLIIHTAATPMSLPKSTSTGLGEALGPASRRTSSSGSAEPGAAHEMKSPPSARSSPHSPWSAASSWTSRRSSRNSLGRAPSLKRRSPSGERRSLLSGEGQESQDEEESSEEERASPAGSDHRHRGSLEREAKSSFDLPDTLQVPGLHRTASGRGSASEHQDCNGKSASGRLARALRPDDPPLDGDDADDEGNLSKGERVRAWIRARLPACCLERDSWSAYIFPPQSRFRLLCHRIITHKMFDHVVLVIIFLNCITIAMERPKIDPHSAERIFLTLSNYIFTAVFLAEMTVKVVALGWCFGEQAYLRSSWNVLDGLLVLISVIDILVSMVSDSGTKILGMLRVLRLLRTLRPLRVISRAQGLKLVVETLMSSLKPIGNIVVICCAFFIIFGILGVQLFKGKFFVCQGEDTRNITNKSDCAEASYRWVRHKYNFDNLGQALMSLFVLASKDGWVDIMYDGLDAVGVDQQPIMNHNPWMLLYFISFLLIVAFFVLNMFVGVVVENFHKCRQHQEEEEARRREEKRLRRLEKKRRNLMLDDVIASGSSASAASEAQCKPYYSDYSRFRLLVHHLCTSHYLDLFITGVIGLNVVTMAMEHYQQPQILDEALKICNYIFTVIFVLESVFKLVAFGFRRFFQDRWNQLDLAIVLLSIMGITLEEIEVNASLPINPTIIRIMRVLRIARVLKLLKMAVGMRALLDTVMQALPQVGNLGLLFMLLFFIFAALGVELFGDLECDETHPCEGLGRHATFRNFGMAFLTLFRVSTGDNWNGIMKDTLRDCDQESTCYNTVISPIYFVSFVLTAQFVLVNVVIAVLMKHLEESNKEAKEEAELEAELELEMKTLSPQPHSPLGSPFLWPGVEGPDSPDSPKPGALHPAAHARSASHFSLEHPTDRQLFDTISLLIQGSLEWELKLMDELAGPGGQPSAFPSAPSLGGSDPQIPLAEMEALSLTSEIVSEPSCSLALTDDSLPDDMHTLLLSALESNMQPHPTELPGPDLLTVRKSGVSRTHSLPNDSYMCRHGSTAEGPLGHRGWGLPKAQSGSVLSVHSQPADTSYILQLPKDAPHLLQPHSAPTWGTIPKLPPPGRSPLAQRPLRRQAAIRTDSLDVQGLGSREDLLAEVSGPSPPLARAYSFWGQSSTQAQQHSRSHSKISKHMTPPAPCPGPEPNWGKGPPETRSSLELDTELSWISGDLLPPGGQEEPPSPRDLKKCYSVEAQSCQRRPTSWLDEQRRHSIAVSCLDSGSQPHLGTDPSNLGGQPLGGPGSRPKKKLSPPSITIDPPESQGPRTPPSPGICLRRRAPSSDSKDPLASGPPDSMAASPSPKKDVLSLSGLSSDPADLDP
Description: Meanwhile, the novel compounds of Chemical Formula 1 in accordance with the present invention were assayed for antagonistic activity against T-type calcium channels. In this regard, an examination was made of the % inhibition of the compounds against T-type calcium channel using FDSS6000.
In the present invention, in order to search for an efficient inhibitor against T-type calcium channel, a primary assay for T-type calcium channel inhibiting activity was conducted by a high-efficient assay using FDSS6000, wherein mammal HEK293 cell lines (originated from human kidney carcinoma cells), which specifically express alG of T-type calcium channel, were used for the primary assay.
HEK293 cells which stably express both α1G and Kir2.1 subunits were grown in Dulbecoo's modified Eagle's medium supplemented with 10% (v/v) fetal bovine serum, penicillin (100 U/ml), streptomycin (100 µg/ml), geneticin (500 µg/ml), and puromycin (1 μg/ml) at 37° C. in a humid atmosphere of 5% CO2 and 95% air. Cells were seeded into 96-well black wall clear bottom plates at a density of 40,000 cells/well and were used on the next day for high-throughput screening (HTS) FDSS6000 assay. For FDSS6000 assay, cells were incubated for 60 min at room temperature with 5 µM fluo3/AM and 0.001% Pluronic F-127 in a HEPES-buffered solution composed of (in MM): 115 NaCl, 5.4 KCl, 0.8 MgCl2, 1.8 CaCl2, 20 HEPES, 13.8 glucose (pH 7.4). During fluorescence-based FDSS6000 assay, […]1G T-type Ca^2+ channels were activated using a high concentration of KCl (70 mM) in 10 mM CaCl2 contained HEPES-buffered solution, and the increase in [Ca^2+]i by KCl-induced depolarization was detected. All data were collected and analyzed using FDSS6000 and related software (Hamamatsu, Japan).

T-type calcium channel, sequence (O43497 whole entry): as above

| Compound | IC50 (T-type calcium channel) [nM] | inhibition at 10 µM (α1G T-type Ca2+ channels) [%] |
| --- | --- | --- |
| O=C(NCCCN1CCCCC1)c1ccc2c(c1)C(=O)N(Cc1ccccc1)C2 [Compound 1, 2-benzyl-3-oxo-N-(3-(piperidin-1-yl)propyl)isoindoline-5-carboxamide] | 9570 | 22 |
| O=C(NCCCN1CCCCC1)c1ccc2c(c1)C(=O)N(Cc1ccc(Br)cc1)C2 [Compound 7, 2-(4-bromobenzyl)-3-oxo-N-(3-(piperidin-1-yl)propyl)isoindoline-5-carboxamide] | 9770 | 33.4 |
| CCC1CCCCN1CCCNC(=O)c1ccc2c(c1)C(=O)N(Cc1cccc(Br)c1)C2 (centres unmarked) [Compound 24, 2-(3-bromobenzyl)-N-(3-(2-ethylpiperidin-1-yl)propyl)-3-oxoisoindoline-5-carboxamide] | 4070 | 46 |
| CCCC1CCCCN1CCCNC(=O)c1ccc2c(c1)C(=O)N(Cc1cccc(Br)c1)C2 (centres unmarked) [Compound 33, 2-(3-bromobenzyl)-3-oxo-N-(3-(2-propylpiperidin-1-yl)propyl)isoindoline-5-carboxamide] | 1740 | 60.8 |
| CCCC1CCCCN1CCCNC(=O)c1ccc2c(c1)C(=O)N(Cc1ccc(I)cc1)C2 (centres unmarked) [Compound 36, 2-(4-iodobenzyl)-3-oxo-N-(3-(2-propylpiperidin-1-yl)propyl)isoindoline-5-carboxamide] | 6870 | 53.8 |
| CC(C)C1CCCCN1CCCNC(=O)c1ccc2c(c1)C(=O)N(Cc1cccc(Cl)c1)C2 (centres unmarked) [Compound 40, 2-(3-chlorobenzyl)-N-(3-(2-isopropylpiperidin-1-yl)propyl)-3-oxoisoindoline-5-carboxamide] | 1010 | 56.7 |
| CC(C)C1CCCCN1CCCNC(=O)c1ccc2c(c1)C(=O)N(Cc1cccc(Br)c1)C2 (centres unmarked) [Compound 42, 2-(3-bromobenzyl)-N-(3-(2-isopropylpiperidin-1-yl)propyl)-3-oxoisoindoline-5-carboxamide] | 4150 | 44.4 |
| CC(C)C1CCCCN1CCCNC(=O)c1ccc2c(c1)C(=O)N(Cc1ccc(Br)cc1)C2 (centres unmarked) [Compound 43, 2-(4-bromobenzyl)-N-(3-(2-isopropylpiperidin-1-yl)propyl)-3-oxoisoindoline-5-carboxamide] | 5100 | 51.7 |
| CC(C)C1CCCCN1CCCNC(=O)c1ccc2c(c1)C(=O)N(Cc1cccc(I)c1)C2 (centres unmarked) [Compound 44, 2-(3-iodobenzyl)-N-(3-(2-isopropylpiperidin-1-yl)propyl)-3-oxoisoindoline-5-carboxamide] | 4360 | 60.7 |
| CC(C)C1CCCCN1CCCNC(=O)c1ccc2c(c1)C(=O)N(Cc1ccc(I)cc1)C2 (centres unmarked) [Compound 45, 2-(4-iodobenzyl)-N-(3-(2-isopropylpiperidin-1-yl)propyl)-3-oxoisoindoline-5-carboxamide] | 1070 | 58.9 |
| CCCCC1CCCCN1CCCNC(=O)c1ccc2c(c1)C(=O)N(Cc1ccccc1)C2 (centres unmarked) [Compound 46, 2-benzyl-N-(3-(2-butylpiperidin-1-yl)propyl)-3-oxoisoindoline-5-carboxamide] | 2650 | 55.3 |
| CCCCC1CCCCN1CCCNC(=O)c1ccc2c(c1)C(=O)N(Cc1cccc(F)c1)C2 (centres unmarked) [Compound 47, N-(3-(2-butylpiperidin-1-yl)propyl)-2-(3-fluorobenzyl)-3-oxoisoindoline-5-carboxamide] | 2300 | 49 |
| CCCCC1CCCCN1CCCNC(=O)c1ccc2c(c1)C(=O)N(Cc1ccc(F)cc1)C2 (centres unmarked) [Compound 48, N-(3-(2-butylpiperidin-1-yl)propyl)-2-(4-fluorobenzyl)-3-oxoisoindoline-5-carboxamide] | 1920 | 62.1 |
| CCCCC1CCCCN1CCCNC(=O)c1ccc2c(c1)C(=O)N(Cc1cccc(Cl)c1)C2 (centres unmarked) [Compound 49, N-(3-(2-butylpiperidin-1-yl)propyl)-2-(3-chlorobenzyl)-3-oxoisoindoline-5-carboxamide] | 620 | 71.8 |
| O=C(NCCCN1CCCCC1c1ccccc1)c1ccc2c(c1)C(=O)N(Cc1cccc(Br)c1)C2 (centres unmarked) [Compound 60, 2-(3-bromobenzyl)-3-oxo-N-(3-(2-phenylpiperidin-1-yl)propyl)isoindoline-5-carboxamide] | 1540 | 55.2 |
| O=C(NCCCN1CCCCC1c1ccccc1)c1ccc2c(c1)C(=O)N(Cc1ccc(Br)cc1)C2 (centres unmarked) [Compound 61, 2-(4-bromobenzyl)-3-oxo-N-(3-(2-phenylpiperidin-1-yl)propyl)isoindoline-5-carboxamide] | 1070 | 45.6 |

Reference: patent US8148402B2, “Isoindolinone derivatives having inhibitory activity against T-type calcium channel and method for preparation thereof” (Korea Institute of Science and Technology, priority 2008, dated 2012)
